Assay results from US20230346827A1 (priority 2020, published 2023).

Tested on: rats subjected to sTBI
Assay: sTBI rats, LMW-DS 1, 5, 15 mg/kg s.c. 30 min post-TBI: HPLC of brain free amino acids (Example 4)
Format: in vivo, rat
[1] = 15 mg/kg repeated, 7 d post-sTBI

## sodium salt of dextran sulfate [LMW-DS]
1 mg/kg, 2 d post-sTBI
  ALA: 0.76 ± 0.08 nmol/g w.w.
  ARG: 0.13 ± 0.03 nmol/g w.w.
  ASN: 0.13 ± 0.02 nmol/g w.w.
  ASP: 4.17 ± 0.99 nmol/g w.w.
  CITR: 0.01 ± 0.01 nmol/g w.w.
  GABA: 1.87 ± 0.17 µmol/g w.w.
  GLN: 4.37 ± 0.59 nmol/g w.w.
  GLU: 12.52 ± 0.91 nmol/g w.w.
  GLY: 1.35 ± 0.26 nmol/g w.w.
  HYS: 0.08 ± 0.01 nmol/g w.w.
  ILE: 0.10 ± 0.02 nmol/g w.w.
  L-Cystat: 0.25 ± 0.05 nmol/g w.w.
  LEU: 0.09 ± 0.02 nmol/g w.w.
  LYS: 0.29 ± 0.11 nmol/g w.w.
  MET: 0.04 ± 0.01 nmol/g w.w.
  ORN: 0.02 ± 0.01 nmol/g w.w.
  PHE: 0.07 ± 0.03 nmol/g w.w.
  SAH: 0.07 ± 0.02 nmol/g w.w.
  SER: 0.91 ± 0.07 nmol/g w.w.
  TAU: 4.98 ± 0.47 nmol/g w.w.
  THR: 0.70 ± 0.15 nmol/g w.w.
  TRP: 0.02 ± 0.01 nmol/g w.w.
  TYR: 0.18 ± 0.03 nmol/g w.w.
  VAL: 0.07 ± 0.03 nmol/g w.w.
1 mg/kg, 7 d post-sTBI
  ALA: 0.57 ± 0.06 nmol/g w.w.
  ARG: 0.13 ± 0.02 nmol/g w.w.
  ASN: 0.10 ± 0.02 nmol/g w.w.
  ASP: 4.17 ± 0.67 nmol/g w.w.
  CITR: 0.03 ± 0.01 nmol/g w.w.
  GABA: 1.73 ± 0.18 µmol/g w.w.
  GLN: 4.10 ± 0.42 nmol/g w.w.
  GLU: 12.14 ± 1.02 nmol/g w.w.
  GLY: 0.98 ± 0.20 nmol/g w.w.
  L-Cystat: 0.24 ± 0.04 nmol/g w.w.
  MET: 0.03 ± 0.01 nmol/g w.w.
  ORN: 0.01 ± 0.01 nmol/g w.w.
  SAH: 0.04 ± 0.01 nmol/g w.w.
  SER: 0.92 ± 0.16 nmol/g w.w.
  THR: 0.71 ± 0.12 nmol/g w.w.
5 mg/kg, 2 d post-sTBI
  ALA: 0.79 ± 0.08 nmol/g w.w.
  ARG: 0.13 ± 0.03 nmol/g w.w.
  ASN: 0.17 ± 0.03 nmol/g w.w.
  ASP: 4.15 ± 0.95 nmol/g w.w.
  CITR: 0.02 ± 0.01 nmol/g w.w.
  GABA: 1.99 ± 0.18 µmol/g w.w.
  GLN: 4.55 ± 0.44 nmol/g w.w.
  GLU: 11.93 ± 0.55 nmol/g w.w.
  GLY: 1.43 ± 0.28 nmol/g w.w.
  HYS: 0.11 ± 0.02 nmol/g w.w.
  ILE: 0.10 ± 0.02 nmol/g w.w.
  L-Cystat: 0.31 ± 0.06 nmol/g w.w.
  LEU: 0.10 ± 0.02 nmol/g w.w.
  LYS: 0.37 ± 0.14 nmol/g w.w.
  MET: 0.05 ± 0.01 nmol/g w.w.
  ORN: 0.01 ± 0.01 nmol/g w.w.
  PHE: 0.07 ± 0.03 nmol/g w.w.
  SAH: 0.07 ± 0.02 nmol/g w.w.
  SER: 0.91 ± 0.07 nmol/g w.w.
  TAU: 5.15 ± 0.49 nmol/g w.w.
  THR: 0.77 ± 0.17 nmol/g w.w.
  TRP: 0.03 ± 0.01 nmol/g w.w.
  TYR: 0.20 ± 0.03 nmol/g w.w.
  VAL: 0.08 ± 0.03 nmol/g w.w.
5 mg/kg, 7 d post-sTBI
  ALA: 0.44 ± 0.05 nmol/g w.w.
  ARG: 0.15 ± 0.02 nmol/g w.w.
  ASN: 0.10 ± 0.02 nmol/g w.w.
  ASP: 3.63 ± 0.59 nmol/g w.w.
  CITR: 0.03 ± 0.01 nmol/g w.w.
  GABA: 1.63 ± 0.17 µmol/g w.w.
  GLN: 3.86 ± 0.40 nmol/g w.w.
  GLU: 11.82 ± 0.99 nmol/g w.w.
  GLY: 0.88 ± 0.15 nmol/g w.w.
  L-Cystat: 0.26 ± 0.04 nmol/g w.w.
  MET: 0.04 ± 0.01 nmol/g w.w.
  ORN: 0.01 ± 0.01 nmol/g w.w.
  SAH: 0.04 ± 0.01 nmol/g w.w.
  SER: 0.83 ± 0.14 nmol/g w.w.
  THR: 0.71 ± 0.15 nmol/g w.w.
[1]
  ALA: 0.47 ± 0.05 nmol/g w.w.
  ARG: 0.19 ± 0.02 nmol/g w.w.
  ASN: 0.10 ± 0.02 nmol/g w.w.
  ASP: 2.42 ± 0.39 nmol/g w.w.
  CITR: 0.03 ± 0.01 nmol/g w.w.
  GABA: 1.38 ± 0.14 µmol/g w.w.
